What all share (assay): cryo-EM structure
Assay [1] deals with T1, MCM-Cdt1 complex.
T1 construct: gene MCM2; with Cell division cycle protein CDT1
Format: binding, Saccharomyces cerevisiae. The following applies: OCCM-Mcm2RA complex on ARS1 DNA with ORC-Cdc6; 3 mM ATP added, Mg2+, pH 7.6, 30 C; all six MCM ATPase sites occupied, ADP assigned from density.

Assay [2] concerns T1, MCM-Cdt1 complex. Format: binding, Saccharomyces cerevisiae. The following applies: OC1M-Mcm5RA complex (no Cdc6) on ARS1 DNA with ORC; 2 mM ATP added, Mg2+, pH 7.6, 30 C; sites Mcm5/2, 2/6, 6/4 and 4/7; conformers 1 and 2.
The target of another assay is T2, ORC complex (Saccharomyces cerevisiae, UniProt P50874+P54784+P54790+P54791).
T2 construct: gene ORC1; with Origin recognition complex subunit 2; Origin recognition complex subunit 6
T2 sequence (P54784 whole entry): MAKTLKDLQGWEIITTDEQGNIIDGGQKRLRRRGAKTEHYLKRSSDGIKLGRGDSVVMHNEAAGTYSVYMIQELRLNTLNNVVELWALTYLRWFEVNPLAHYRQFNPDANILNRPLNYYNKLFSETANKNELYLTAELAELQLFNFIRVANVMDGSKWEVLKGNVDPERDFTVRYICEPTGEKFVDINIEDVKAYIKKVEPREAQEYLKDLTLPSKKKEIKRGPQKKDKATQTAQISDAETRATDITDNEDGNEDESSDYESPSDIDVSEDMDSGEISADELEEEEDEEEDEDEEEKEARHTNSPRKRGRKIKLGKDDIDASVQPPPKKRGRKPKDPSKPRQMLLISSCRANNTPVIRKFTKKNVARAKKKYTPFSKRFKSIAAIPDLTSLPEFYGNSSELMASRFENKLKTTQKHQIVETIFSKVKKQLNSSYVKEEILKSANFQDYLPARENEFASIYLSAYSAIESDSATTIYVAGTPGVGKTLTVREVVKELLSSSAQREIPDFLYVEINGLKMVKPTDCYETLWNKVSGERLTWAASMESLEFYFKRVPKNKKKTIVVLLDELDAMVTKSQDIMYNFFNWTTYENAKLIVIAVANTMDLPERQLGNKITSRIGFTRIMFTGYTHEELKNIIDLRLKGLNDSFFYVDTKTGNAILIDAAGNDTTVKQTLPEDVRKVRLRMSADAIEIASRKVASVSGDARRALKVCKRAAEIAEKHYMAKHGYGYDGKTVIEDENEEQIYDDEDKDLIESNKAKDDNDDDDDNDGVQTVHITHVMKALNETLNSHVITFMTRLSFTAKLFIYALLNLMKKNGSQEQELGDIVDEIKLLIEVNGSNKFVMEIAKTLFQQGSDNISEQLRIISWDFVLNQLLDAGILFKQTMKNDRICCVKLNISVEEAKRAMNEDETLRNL
T2 sequence (P54790 2-616): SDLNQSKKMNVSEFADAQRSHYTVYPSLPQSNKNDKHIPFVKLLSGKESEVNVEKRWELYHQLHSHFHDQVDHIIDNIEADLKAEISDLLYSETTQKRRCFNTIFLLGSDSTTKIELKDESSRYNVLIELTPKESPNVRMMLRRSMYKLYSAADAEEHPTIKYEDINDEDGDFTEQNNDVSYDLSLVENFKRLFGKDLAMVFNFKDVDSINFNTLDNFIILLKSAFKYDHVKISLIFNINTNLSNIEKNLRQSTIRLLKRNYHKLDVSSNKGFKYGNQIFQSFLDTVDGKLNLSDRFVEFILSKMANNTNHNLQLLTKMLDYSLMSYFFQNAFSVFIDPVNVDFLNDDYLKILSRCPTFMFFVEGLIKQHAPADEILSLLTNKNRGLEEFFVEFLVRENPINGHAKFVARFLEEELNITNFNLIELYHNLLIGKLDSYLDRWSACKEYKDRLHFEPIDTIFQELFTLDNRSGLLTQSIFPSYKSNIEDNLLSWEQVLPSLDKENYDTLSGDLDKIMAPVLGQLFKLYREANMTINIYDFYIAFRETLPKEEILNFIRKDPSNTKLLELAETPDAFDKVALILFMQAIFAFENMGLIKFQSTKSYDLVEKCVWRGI
T2 sequence (P54791 whole entry): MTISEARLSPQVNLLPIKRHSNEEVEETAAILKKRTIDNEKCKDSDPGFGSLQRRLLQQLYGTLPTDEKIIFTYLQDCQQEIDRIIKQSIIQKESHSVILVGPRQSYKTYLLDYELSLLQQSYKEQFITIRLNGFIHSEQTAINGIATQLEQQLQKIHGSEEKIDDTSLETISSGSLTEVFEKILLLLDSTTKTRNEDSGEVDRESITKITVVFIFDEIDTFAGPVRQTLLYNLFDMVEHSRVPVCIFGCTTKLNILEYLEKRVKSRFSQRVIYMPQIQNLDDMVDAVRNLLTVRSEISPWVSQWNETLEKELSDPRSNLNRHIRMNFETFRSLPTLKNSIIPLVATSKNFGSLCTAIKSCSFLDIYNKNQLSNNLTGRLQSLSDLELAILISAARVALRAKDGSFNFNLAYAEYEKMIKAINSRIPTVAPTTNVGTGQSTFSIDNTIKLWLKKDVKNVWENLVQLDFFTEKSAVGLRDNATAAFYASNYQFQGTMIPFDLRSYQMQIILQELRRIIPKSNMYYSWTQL
T2 sequence (P50874 whole entry): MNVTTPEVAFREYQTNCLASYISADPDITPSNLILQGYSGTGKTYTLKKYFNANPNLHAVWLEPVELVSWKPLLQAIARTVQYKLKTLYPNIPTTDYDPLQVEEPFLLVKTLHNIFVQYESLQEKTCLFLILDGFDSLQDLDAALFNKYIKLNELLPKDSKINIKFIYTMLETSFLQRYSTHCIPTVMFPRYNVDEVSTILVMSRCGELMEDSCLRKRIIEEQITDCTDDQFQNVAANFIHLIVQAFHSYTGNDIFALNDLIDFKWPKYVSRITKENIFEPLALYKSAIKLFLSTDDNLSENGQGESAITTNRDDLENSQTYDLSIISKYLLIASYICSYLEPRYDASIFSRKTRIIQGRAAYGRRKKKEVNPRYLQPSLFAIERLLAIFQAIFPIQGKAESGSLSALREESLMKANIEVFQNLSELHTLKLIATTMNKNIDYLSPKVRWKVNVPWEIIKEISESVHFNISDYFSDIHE
T2 sequence (P32833 whole entry partner): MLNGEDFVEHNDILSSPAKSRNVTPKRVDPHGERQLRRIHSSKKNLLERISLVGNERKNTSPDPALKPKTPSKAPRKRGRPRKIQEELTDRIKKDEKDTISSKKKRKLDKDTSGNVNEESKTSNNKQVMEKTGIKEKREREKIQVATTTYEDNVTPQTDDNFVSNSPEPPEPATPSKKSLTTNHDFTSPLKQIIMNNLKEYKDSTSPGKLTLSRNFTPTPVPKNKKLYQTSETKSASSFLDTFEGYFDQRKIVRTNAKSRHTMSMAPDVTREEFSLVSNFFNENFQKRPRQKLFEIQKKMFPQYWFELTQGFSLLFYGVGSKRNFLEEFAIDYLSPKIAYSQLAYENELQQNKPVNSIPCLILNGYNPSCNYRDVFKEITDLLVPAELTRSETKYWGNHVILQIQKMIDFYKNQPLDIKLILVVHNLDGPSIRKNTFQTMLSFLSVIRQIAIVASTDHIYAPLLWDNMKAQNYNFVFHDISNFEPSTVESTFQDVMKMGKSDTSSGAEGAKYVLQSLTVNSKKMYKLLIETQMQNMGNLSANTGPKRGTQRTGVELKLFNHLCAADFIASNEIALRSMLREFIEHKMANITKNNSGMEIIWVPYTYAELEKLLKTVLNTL
T2 sequence (P38826 whole entry partner): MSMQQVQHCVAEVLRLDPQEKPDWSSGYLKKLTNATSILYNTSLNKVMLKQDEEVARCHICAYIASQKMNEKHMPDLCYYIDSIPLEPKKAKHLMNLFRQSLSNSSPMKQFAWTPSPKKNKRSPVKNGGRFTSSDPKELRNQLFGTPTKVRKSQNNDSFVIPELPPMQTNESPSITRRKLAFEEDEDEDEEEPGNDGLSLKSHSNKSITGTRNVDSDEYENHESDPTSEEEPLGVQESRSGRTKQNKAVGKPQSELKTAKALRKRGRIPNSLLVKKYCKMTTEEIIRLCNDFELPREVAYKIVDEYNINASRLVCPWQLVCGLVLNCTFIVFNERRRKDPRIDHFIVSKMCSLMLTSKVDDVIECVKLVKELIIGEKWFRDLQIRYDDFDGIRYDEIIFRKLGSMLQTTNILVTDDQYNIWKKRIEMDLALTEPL
The format is binding. The following applies: wild-type ORC in OCCM-Mcm2RA (sites Orc4-Orc1, Orc5-Orc4, Orc3-Orc5) and in OC1M-Mcm5RA (Orc5-Orc4, Orc3-Orc5); 2-3 mM ATP, Mg2+, pH 7.6, 30 C.

Turning to `Nc1ncnc2c1ncn2[C@@H]1O[C@H](COP(=O)(O)OP(=O)(O)O)[C@@H](O)[C@H]1O` [ADP], the cryo-EM structure result in the assay with MCM-Cdt1 complex [1] is recorded as “All six ATPase sites were identified as occupied, with ADP modelled based on the density”; in the assay with MCM-Cdt1 complex [2], “Four ATPase sites were identified as occupied, with ADP modelled based on the density”.

For `Nc1ncnc2c1ncn2[C@@H]1O[C@H](COP(=O)(O)OP(=O)(O)OP(=O)(O)O)[C@@H](O)[C@H]1O` [ATP], the cryo-EM structure result at ORC complex was “ATP can only be observed in the Orc4-Orc1, Orc5-4 and Orc3-5 nucleotide-binding sites”.
